Measurements taken from patent US20080095822A1, “Active Substance Delivery System Comprising A Hydrogel Atrix And Microcarriers” (UNIVERSITE DE LIEGE, priority 2004, published 2008).

Assay: release of LNG from PHEMA hydrogel matrix into purified water (HPLC-UV)
Type: physicochemical
Conditions: LNG directly in matrix, after 10 days, purified water 37° C.

C#C[C@]1(O)CC[C@H]2[C@@H]3CCC4=CC(=O)CC[C@@H]4[C@H]3CC[C@@]21CC [LNG, levonorgestrel]
release rate after stabilisation: around 10 μg/day
